Assay results from patent US10112955B2, “Isoindoline, azaisoindoline, dihydroindenone and dihydroazaindenone inhibitors of Mnk1 and Mnk2” (eFFECTOR THERAPEUTICS, INC., priority 2015, dated 2018).
Counter-ions that a name gives are not always drawn.

Test system: Phosphorylated eIF4E
Experiment: peIF4E Signaling Cellular Assay (CisBio peIF4E HTRF)
Format: cell-based
Conditions: cells incubated with compound for 2 hrs at 37° C., 12-point curve
Method: Phosphorylated eIF4E is assayed using the CisBio peIF4E HTRF® assay kit (CisBio, catalogue No. 64EF4PEG). Cells are plated in 96-well tissue-culture treated plate in appropriate growth medium (90 μL). Compounds (10×) are diluted using 3-fold serial dilutions in cell culture medium and added to cells. Plates are incubated for 2 hrs at 37° C. The cell supernatant is carefully removed either by aspirating supernatant or by flicking the plate. Immediately 50 μL of supplemented lysis buffer (1×) is added and incubated for at least 30 minutes at room temperature under shaking. After homogenization by pipeting up and down, 16 μL of cell lysate is transferred from the 96-well cell-culture plate to a 384-well small volume white plate. 4 μL of premixed antibody solutions (vol/vol) is prepared in the detection buffer and added. The plate is covered with a plate sealer and incubated overnight at room temperature. The fluorescence emissions at two different wavelengths are read (665 nm and 620 nm) on a Wallac Victor2. Emission ratios are converted into percent inhibitions and imported into GraphPad Prism software. […] IC50 values are determined using a nonlinear regression model available in GraphPad Prism 5.

Compound	IC50
Cc1cc(Nc2ncncc2C#N)cc2c1C(=O)NC21CCN(CC(F)F)CC1 [Cpd. No. 67, 4-((1′-(2,2-difluoroethyl)-4-methyl-3-oxospiro[isoindoline-1,4′-piperidin]-6-yl)amino)pyrimidine-5-carbonitrile]	1000 to 100000 nM
CSc1c(N)ncnc1Nc1cc(C)c2c(c1)C1(CCCCC1)NC2=O [Cpd. No. 85, 6′-((6-amino-5-(methylthio)pyrimidin-4-yl)amino)-4′-methylspiro[cyclohexane-1,1′-isoindolin]-3′-one trifluoroacetic acid salt]	50 to 1000 nM
Cc1cc(Nc2ncnc(N)c2C)cc2c1C(=O)CC21CCCCC1 [Cpd. No. 110, 6′-((6-amino-5-methylpyrimidin-4-yl)amino)-4′-methylspiro[cyclohexane-1,1′-inden]-3′(2′H)-one]	50 to 1000 nM
Cc1cc(Nc2ncncc2C#N)cc2c1C(=O)NC21CCCCC1 [Cpd. No. 63, 4-((4′-methyl-3′-oxospiro[cyclohexane-1,1′-isoindolin]-6′-yl)amino)pyrimidine-5-carbonitrile]	50 to 1000 nM
Cc1cc(Nc2cc(N)ncn2)nc2c1C(=O)NC21CCCCC1 [Cpd. No. 70, 2′-((6-aminopyrimidin-4-yl)amino)-4′-methylspiro[cyclohexane-1,7′-pyrrolo[3,4-b]pyridin]-5′(6′H)-one]	< 50 nM
COc1cncnc1Nc1cc(C)c2c(c1)C1(CCN(CC(F)F)CC1)NC2=O [Cpd. No. 65, 1′-(2,2-difluoroethyl)-6-((5-methoxypyrimidin-4-yl)amino)-4-methylspiro[isoindoline-1,4′-piperidin]-3-one]	50 to 1000 nM
COc1c(N)ncnc1Nc1cc(C)c2c(c1)C1(CCN(C)CC1)NC2=O [Cpd. No. 68, 6-((6-amino-5-methoxypyrimidin-4-yl)amino)-1′,4-dimethylspiro[isoindoline-1,4′-piperidin]-3-one]	50 to 1000 nM
Cc1cc(Nc2ncnc(N)c2C)cc2c1C(=O)NC21CCOCC1 [Cpd. No. 74, 6-((6-amino-5-methylpyrimidin-4-yl)amino)-4-methyl-2′,3′,5′,6′-tetrahydrospiro[isoindoline-1,4′-pyran]-3-one]	50 to 1000 nM
Cc1cc(Nc2ncnc(N)c2C)cc2c1C(=O)NC2 [Cpd. No. 106, 5-((6-amino-5-methylpyrimidin-4-yl)amino)-7-methylisoindolin-1-one]	1000 to 100000 nM
Cc1cc(Nc2ncnc3[nH]ccc23)cc2c1C(=O)NC21CCCCC1 [Cpd. No. 75, 6′-((7H-pyrrolo[2,3-d]pyrimidin-4-yl)amino)-4′-methylspiro[cyclohexane-1,1′-isoindolin]-3′-one]	< 50 nM
Cc1cc(Nc2ncnc(N)c2C)cc2c1C(=O)NC21CCN(CC(F)F)CC1 [Cpd. No. 66, 6-((6-amino-5-methylpyrimidin-4-yl)amino)-1′-(2,2-difluoroethyl)-4-methylspiro[isoindoline-1,4′-piperidin]-3-one]	50 to 1000 nM
Cc1cc(Nc2ncnc(N)c2C)cc2c1C(=O)NC21CCN(C)CC1 [Cpd. No. 62, 6-((6-amino-5-methylpyrimidin-4-yl)amino)-1′,4-dimethylspiro[isoindoline-1,4′-piperidin]-3-one]	1000 to 100000 nM
COc1c(N)ncnc1Nc1cc(C)c2c(c1)C1(CCN(CC(F)F)CC1)NC2=O [Cpd. No. 69, 6-((6-amino-5-methoxypyrimidin-4-yl)amino)-1′-(2,2-difluoroethyl)-4-methylspiro[isoindoline-1,4′-piperidin]-3-one]	50 to 1000 nM
Cc1cc(Nc2ncncc2C(N)=O)cc2c1C(=O)NC21CCCCC1 [Cpd. No. 64, 4-((4′-methyl-3′-oxospiro[cyclohexane-1,1′-isoindolin]-6′-yl)amino)pyrimidine-5-carboxamide]	50 to 1000 nM
Cc1cc(Nc2ncncc2C#N)cc2c1C(=O)NC21CCN(C)CC1 [Cpd. No. 61, 4-((1′,4-dimethyl-3-oxospiro[isoindoline-1,4′-piperidin]-6-yl)amino)pyrimidine-5-carbonitrile trifluoroacetic acid salt]	1000 to 100000 nM
Cc1cc(Nc2ncnc(N)c2OCCCN)cc2c1C(=O)NC21CCCCC1 [Cpd. No. 87, 6′-((6-amino-5-(3-aminopropoxy)pyrimidin-4-yl)amino)-4′-methylspiro[cyclohexane-1,1′-isoindolin]-3′-one hydrochloride salt]	50 to 1000 nM
COc1cncnc1Nc1cc(C)c2c(c1)C1(CCN(C)CC1)NC2=O [Cpd. No. 60, 6-((5-methoxypyrimidin-4-yl)amino)-1′,4-dimethylspiro [isoindoline-1,4′-piperidin]-3-one]	50 to 1000 nM
Cc1cc(Nc2ncnc(N)c2OCCN)cc2c1C(=O)NC21CCCCC1 [Cpd. No. 81, 6′-((6-amino-5-(2-aminoethoxy)pyrimidin-4-yl)amino)-4′-methylspiro[cyclohexane-1,1′-isoindolin]-3′-one hydrochloride]	50 to 1000 nM

Further lines, results first:

IC50	Compound
1000 to 100000 nM	Cc1c(N)ncnc1Nc1cc(O)c2c(c1)C1(CCCCC1)NC2=O [Cpd. No. 92, 6′-((6-amino-5-methylpyrimidin-4-yl)amino)-4′-hydroxyspiro[cyclohexane-1,1′-isoindolin]-3′-one]
50 to 1000 nM	Cc1c(N)ncnc1Nc1cc(F)c2c(c1)C1(CCCCC1)NC2=O [Cpd. No. 89, 6′-((6-amino-5-methylpyrimidin-4-yl)amino)-4′-fluorospiro[cyclohexane-1,1′-isoindolin]-3′-one]
50 to 1000 nM	CCOc1c(N)ncnc1Nc1cc(C)c2c(c1)C1(CCCCC1)NC2=O [Cpd. No. 76, 6′-((6-amino-5-ethoxypyrimidin-4-yl)amino)-4′-methylspiro[cyclohexane-1,1′-isoindolin]-3′-one]
50 to 1000 nM	Cc1c(N)ncnc1Nc1cc(C(F)(F)F)c2c(c1)C1(CCCCC1)NC2=O [Cpd. No. 79, 6′-((6-amino-5-methylpyrimidin-4-yl)amino)-4′-(trifluoromethyl)spiro[cyclohexane-1,1′-isoindolin]-3′-one]
< 50 nM	Cc1cc(Nc2ncnc(N)c2Cl)nc2c1C(=O)NC21CCCCC1 [Cpd. No. 73, 2′-((6-amino-5-chloropyrimidin-4-yl)amino)-4′-methylspiro[cyclohexane-1,7′-pyrrolo[3,4-b]pyridin]-5′(6′H)-one]
50 to 1000 nM	CCc1cc(Nc2ncnc(N)c2C)cc2c1C(=O)NC21CCCCC1 [Cpd. No. 90, 6′-((6-amino-5-methylpyrimidin-4-yl)amino)-4′-ethylspiro [cyclohexane-1,1′-isoindolin]-3′-one]
50 to 1000 nM	COc1c(Nc2ncnc(N)c2C)cc(C)c2c1C1(CCCCC1)NC2=O [Cpd. No. 94, 6′-((6-amino-5-methylpyrimidin-4-yl)amino)-7′-methoxy-4′-methylspiro[cyclohexane-1,1′-isoindolin]-3′-one]
1000 to 100000 nM	Cc1cc(Nc2ncnc(N)c2C)c(Cl)c2c1C(=O)NC21CCCCC1 [Cpd. No. 96, 6′-((6-amino-5-methylpyrimidin-4-yl)amino)-7′-chloro-4′-methylspiro[cyclohexane-1,1′-isoindolin]-3′-one]
50 to 1000 nM	Cc1cc(Nc2ncnc(N)c2S(C)(=O)=O)cc2c1C(=O)NC21CCCCC1 [Cpd. No. 86, 6′-((6-amino-5-(methylsulfonyl)pyrimidin-4-yl)amino)-4′-methylspiro[cyclohexane-1,1′-isoindolin]-3′-one]
< 50 nM	Cc1cc(Nc2ncnc(N)c2C#N)cc2c1C(=O)NC21CCCCC1 [Cpd. No. 77, 4-amino-6-((4′-methyl-3′-oxospiro[cyclohexane-1,1′-isoindolin]-6′-yl)amino)pyrimidine-5-carbonitrile]
50 to 1000 nM	Cc1cc(Nc2ncnc(N)c2C)c(O)c2c1C(=O)NC21CCCCC1 [Cpd. No. 93, 6′-((6-amino-5-methylpyrimidin-4-yl)amino)-7′-hydroxy-4′-methylspiro[cyclohexane-1,1′-isoindolin]-3′-one]
50 to 1000 nM	Cc1cc(Nc2ncnc(N)c2OC(F)F)cc2c1C(=O)NC21CCCCC1 [Cpd. No. 84, 6′-((6-amino-5-(difluoromethoxy)pyrimidin-4-yl)amino)-4′-methylspiro[cyclohexane-1,1′-isoindolin]-3′-one]
1000 to 100000 nM	Cc1c(N)ncnc1Nc1cc(C#N)c2c(c1)C1(CCCCC1)NC2=O [Cpd. No. 91, 6′-((6-amino-5-methylpyrimidin-4-yl)amino)-3′-oxospiro[cyclohexane-1,1′-isoindoline]-4′-carbonitrile]
50 to 1000 nM	Cc1cc(Nc2ncnc(N)c2C(F)(F)F)cc2c1C(=O)NC21CCCCC1 [Cpd. No. 80, 6′-((6-amino-5-(trifluoromethyl)pyrimidin-4-yl)amino)-4′-methylspiro[cyclohexane-1,1′-isoindolin]-3′-one]
1000 to 100000 nM	COc1cc(Nc2ncnc(N)c2C)cc2c1C(=O)NC21CCCCC1 [Cpd. No. 78, 6′-((6-amino-5-methylpyrimidin-4-yl)amino)-4′-methoxyspiro[cyclohexane-1,1′-isoindolin]-3′-one]
50 to 1000 nM	Cc1c(N)ncnc1Nc1cc(C(F)F)c2c(c1)C1(CCCCC1)NC2=O [Cpd. No. 88, 6′-((6-amino-5-methylpyrimidin-4-yl)amino)-4′-(difluoromethyl)spiro[cyclohexane-1,1′-isoindolin]-3′-one]
< 50 nM	Cc1cc(Nc2ncnc(N)c2OC(F)(F)F)cc2c1C(=O)NC21CCCCC1 [Cpd. No. 83, 6′-((6-amino-5-(trifluoromethoxy)pyrimidin-4-yl)amino)-4′-methylspiro[cyclohexane-1,1′-isoindolin]-3′-one]
